In patent publication US12023319B2, “Carboxylic acid aromatic amides” (priority 2016, dated 2024):

Target: T1, human Bradykinin B1 receptor (Homo sapiens, UniProt P46663)
T1 construct: host or cells: CHO-K1
T1 sequence (P46663 1-353): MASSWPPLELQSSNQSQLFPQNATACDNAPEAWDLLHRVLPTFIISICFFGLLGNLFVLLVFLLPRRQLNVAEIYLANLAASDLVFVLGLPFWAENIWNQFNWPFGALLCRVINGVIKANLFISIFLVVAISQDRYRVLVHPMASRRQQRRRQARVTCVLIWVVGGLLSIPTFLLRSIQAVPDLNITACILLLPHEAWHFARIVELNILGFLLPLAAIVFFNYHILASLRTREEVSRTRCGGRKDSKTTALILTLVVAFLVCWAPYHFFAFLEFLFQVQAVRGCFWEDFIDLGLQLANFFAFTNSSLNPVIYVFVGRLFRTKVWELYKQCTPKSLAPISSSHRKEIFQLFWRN
Test: Calcium flux assay (FLIPR), CHO-K1 cells expressing human Bradykinin B1 receptor, absence of 0.1% BSA (hB1 free IC50)
Format: cell-based
Settings: absence of 0.1% BSA in assay buffer
Description: The potency to inhibit the Bradykinin B1 receptor was determined for the Compound Examples of this invention in a cell-based fluorescent calcium-mobilisation assay. The assay measures the ability of Compound Examples to inhibit Bradykinin B1 receptor agonist-induced increase of intracellular free Ca^2+ in the cell line expressing Bradykinin B1 receptor. Specifically, calcium indicator-loaded cells are pre-incubated in the absence or presence of different concentrations of Compound Examples followed by the stimulation with a selective Bradykinin B1 receptor agonist peptide. The change of the intracellular Ca^2+ concentration is monitored with a fluorescent plate reader FLIPR^TETRA® (Molecular Devices).
Calcium Flux Assays (FLIPR) with Cells Expressing Human Bradykinin B1 Receptor (hB1)
CHO-K1 cell line expressing human Bradykinin B1 receptor is purchased from Euroscreen (Gosselies, Belgium, with reference name hB1-D1). The cells are grown in Nutrient Mixture Ham's F12 (Sigma) containing 10% Foetal bovine serum (Sigma) and 400 μg/mL G418 (Sigma), 5 μg/mL puromycin (Sigma).
The effect of BSA on the potency of endothelin receptor antagonists have been described in the prior art (Wu-Wong, J. R. et al. (1997), JPET 281: 791-798). The teaching can be applied in analogy to testing the potency of Bradykinin B1 receptor antagonist in the FLIPR assays.
For the calcium flux assay, 80% confluent cells are detached from the culture vessels with Versene (Gibco), and seeded into 384-well plates (Cell binding Surface; Corning, NY; #3683) at a density of 15,000 cells per well. Cells are seeded in a volume of 50 μL in medium without antibiotics and incubated overnight in a humidified atmosphere with 5% CO2 at 37° C. […] The calcium indicator loaded cells are incubated at 37° C. for 2 hrs. Extracellular dye is then removed and each well is filled with 45 μL of assay buffer. Cell plates are kept in dark until used. Compound examples are assayed at 8 concentrations in triplicate. Serial 10-fold dilutions in 100% DMSO are made at a 100-times higher concentration than the final concentration, and then diluted 1:10 in assay buffer. 5 μL of each diluted compound is added to the well of cell plates (yielding final concentration with 1% DMSO), and incubated for 30 min at 28° C. before the addition of Bradykinin B1 receptor agonist on the FLIPR instrument.
The addition of agonist 20 μl per well to the assay plate is carried out on the FLIPR instrument while continuously monitoring Ca2+-dependent fluorescence at 538 nm. A peptide antagonist Lys-(Des-Arg-Leu)-Bradykinin (Bachem, Brackley) at 20 µM is used to determine the full inhibition as control.
Peak fluorescence is used to determine the response to agonist obtained at each concentration of Compound Examples by the following equation: % Response=100*(RFU(compound)−RFU(control))/(RFU(DMSO)−RFU(control))
RFU means relative fluorescence units.
Control means full inhibition by the peptide antagonist Lys-(Des-Arg-Leu)-Bradykinin at 20 µM.
The response values are plotted against the logarithm of the compound concentrations. The Compound Examples are tested in triplicates per plate and mean values are plotted in Excel XLfit to determine IC50 values, percentage of maximal inhibition and the Hill slopes.

First: O=C(O)c1cc(NC(=O)C2(c3cc(F)cc(Cl)c3)CC2)ccc1-c1cnn(C2CCC2)c1 [Example 57, 5-({[1-(3-Chloro-5-fluorophenyl)cyclopropyl]carbonyl}amino)-2-(1-cyclobutyl-1H-pyrazol-4-yl)benzoic acid]
Second: O=C(O)c1cc(NC(=O)C2(c3ccc(F)cc3Cl)CC2)ccc1-c1cnn(C2CCC2)c1 [Example 61, 5-({[1-(2-Chloro-4-fluorophenyl)cyclopropyl]carbonyl}amino)-2-(1-cyclobutyl-1H-pyrazol-4-yl)benzoic acid]
The IC50 of the first is 4.2-fold higher: 840 nM for the first, 200 nM for the second. The second is the more potent here.

First: O=C(O)c1cc(NC(=O)C2(c3ccc(Cl)cn3)CC2)ccc1-c1cnn(C2CCC2)c1 [Example 58, 5-({[1-(5-Chloropyridin-2-yl)cyclopropyl]carbonyl}amino)-2-(1-cyclobutyl-1H-pyrazol-4-yl)benzoic acid]
Second: O=C(O)c1cc(NC(=O)C2(c3ccc(F)cn3)CC2)ccc1-c1cnn(C2CCC2)c1 [Example 82, 2-(1-Cyclobutyl-1H-pyrazol-4-yl)-5-({[1-(5-fluoropyridin-2-yl)cyclopropyl]carbonyl}amino)benzoic acid]
The IC50 of the first is 6.9-fold lower: 360 nM for the first, 2500 nM for the second.

Going from `O=C(O)c1cc(NC(=O)C2(c3c(F)cccc3F)CC2)ccc1-c1cnn(C2CCC2)c1` [Example 59, 2-(1-Cyclobutyl-1H-pyrazol-4-yl)-5-({[1-(2,6-difluorophenyl)cyclopropyl]carbonyl}amino)benzoic acid] to `O=C(O)c1cc(NC(=O)C2(c3c(F)cccc3Cl)CC2)ccc1-c1cnn(C2CCC2)c1` [Example 62, 5-({[1-(2-Chloro-6-fluorophenyl)cyclopropyl]carbonyl}amino)-2-(1-cyclobutyl-1H-pyrazol-4-yl)benzoic acid], the IC50 falls from 1100 nM to 89 nM (12-fold). The second is the more potent here.

`O=C(O)c1cc(NC(=O)C2(c3cc(C(F)(F)F)ccc3F)CC2)ccc1-c1cnn(C2CCC2)c1` [Example 60, 2-(1-Cyclobutyl-1H-pyrazol-4-yl)-5-[({1-[2-fluoro-5-(trifluoromethyl)phenyl]cyclopropyl}carbonyl)amino]benzoic acid] and `O=C(O)c1cc(NC(=O)C2(c3ccc(C(F)(F)F)c(F)c3)CC2)ccc1-c1cnn(C2CCC2)c1` [Example 79, 2-(1-Cyclobutyl-1H-pyrazol-4-yl)-5-[({1-[3-fluoro-4-(trifluoromethyl)phenyl]cyclopropyl}carbonyl)amino]benzoic acid] are within 1.5-fold of each other in IC50: 62 nM for the first, 60 nM for the second.

First: COc1ccc(F)c(C2(C(=O)Nc3ccc(-c4cnn(C5CCC5)c4)c(C(=O)O)c3)CC2)c1 [Example 63, 2-(1-Cyclobutyl-1H-pyrazol-4-yl)-5-({[1-(2-fluoro-5-methoxyphenyl)cyclopropyl]carbonyl}amino)benzoic acid]
Second: Cc1ccc(C2(C(=O)Nc3ccc(-c4cnn(C5CCC5)c4)c(C(=O)O)c3)CC2)c(F)c1 [Example 80, 2-(1-Cyclobutyl-1H-pyrazol-4-yl)-5-({[1-(2-fluoro-4-methylphenyl)cyclopropyl]carbonyl}amino)benzoic acid]
The IC50 of the first is 25-fold higher: 3000 nM for the first, 120 nM for the second.

Compared with `CC1(C)CC1(C(=O)Nc1ccc(-c2cnn(C3CCC3)c2)c(C(=O)O)c1)c1ccccc1F` (stereo not drawn) [Example 64, 2-(1-Cyclobutyl-1H-pyrazol-4-yl)-5-({[1-(2-fluorophenyl)-2,2-dimethylcyclopropyl]carbonyl}amino)benzoic acid], `Cc1ccc(C2(C(=O)Nc3ccc(-c4cnn(C5CCC5)c4)c(C(=O)O)c3)CC2)cc1F` [Example 81, 2-(1-Cyclobutyl-1H-pyrazol-4-yl)-5-({[1-(3-fluoro-4-methylphenyl)cyclopropyl]carbonyl}amino)benzoic acid] is 1.9-fold lower in IC50: 1300 nM for the first, 680 nM for the second. The second is the more potent here.

`O=C(O)c1cc(NC(=O)C2(c3ccc(OC(F)(F)F)cc3F)CC2)ccc1-n1cc(C(F)(F)F)cn1` [Example 65, 5-[({1-[2-Fluoro-4-(trifluoromethoxy)phenyl]cyclopropyl}carbonyl)amino]-2-[4-(trifluoromethyl)-1H-pyrazol-1-yl]benzoic acid] and `CC(C)(C)c1ccn(-c2ccc(NC(=O)C3(c4ccc(OC(F)(F)F)cc4F)CC3)cc2C(=O)O)n1` [Example 66, 2-(3-tert-Butyl-1H-pyrazol-1-yl)-5-[({1-[2-fluoro-4-(trifluoromethoxy)phenyl]cyclopropyl}carbonyl)amino]benzoic acid] are within 1.5-fold of each other in IC50: 2600 nM for the first, 2100 nM for the second.

First: CCn1cc(-c2ccc(NC(=O)C3(c4ccc(C(F)(F)F)cc4F)CC3)cc2C(=O)O)cn1 [Example 68, 2-(1-Ethyl-1H-pyrazol-4-yl)-5-[({1-[2-fluoro-4-(trifluoromethyl)phenyl]cyclopropyl}carbonyl)amino]benzoic acid]
Second: CC(C)(C)Cn1cc(-c2ccc(NC(=O)C3(c4ccc(C(F)(F)F)cc4F)CC3)cc2C(=O)O)cn1 [Example 76, 2-[1-(2,2-Dimethylpropyl)-1H-pyrazol-4-yl]-5-[({1-[2-fluoro-4-(trifluoromethyl)phenyl]cyclopropyl}carbonyl)amino]benzoic acid]
The IC50 of the first is 3.3-fold higher: 36 nM for the first, 11 nM for the second. The second is the more potent here.

`CCn1cc(-c2ccc(NC(=O)C3(c4ccc(OC(F)(F)F)cc4F)CC3)cc2C(=O)O)cn1` [Example 69, 2-(1-Ethyl-1H-pyrazol-4-yl)-5-[({1-[2-fluoro-4-(trifluoromethoxy)phenyl]cyclopropyl}carbonyl)amino]benzoic acid] and `CC(C)(C)n1cc(-c2ccc(NC(=O)C3(c4ccc(C(F)(F)F)cc4F)CC3)cc2C(=O)O)cn1` [Example 72, 2-(1-tert-Butyl-1H-pyrazol-4-yl)-5-[({1-[2-fluoro-4-(trifluoromethyl)phenyl]cyclopropyl}carbonyl)amino]benzoic acid] are the same in IC50: 28 nM for the first, 28 nM for the second.

Compared with `O=C(O)c1cc(NC(=O)C2(c3ccc(OC(F)(F)F)cc3)CC2)ccc1-c1cnn(C2CCC2)c1` [Example 78, 2-(1-Cyclobutyl-1H-pyrazol-4-yl)-5-[({1-[4-(trifluoromethoxy)phenyl]cyclopropyl}carbonyl)amino]benzoic acid], `O=C(O)c1cc(NC(=O)C2(c3ccc(C(F)(F)F)cc3F)CC2)ccc1-c1cnn([C@@H]2CCOC2)c1` [Example 83, 5-[({1-[2-Fluoro-4-(trifluoromethyl)phenyl]cyclopropyl}carbonyl)amino]-2-{1-[(3R)-tetrahydrofuran-3-yl]-1H-pyrazol-4-yl}benzoic acid] is 1.9-fold higher in IC50: 300 nM for the first, 560 nM for the second. The first is the more potent here.

Compared with `O=C(O)c1cc(NC(=O)C2(c3ccc(C(F)(F)F)cc3F)CC2)ccc1-c1cnn([C@H]2CCOC2)c1` [Example 84, 5-[({1-[2-Fluoro-4-(trifluoromethyl)phenyl]cyclopropyl}carbonyl)amino]-2-{1-[(3S)-tetrahydrofuran-3-yl]-1H-pyrazol-4-yl}benzoic acid], `CC(C)n1cc(-c2c(F)cc(NC(=O)C3(c4ccc(C(F)(F)F)cc4)CC3)cc2C(=O)O)cn1` [Example 85, 3-Fluoro-2-[1-(propan-2-yl)-1H-pyrazol-4-yl]-5-[({1-[4-(trifluoromethyl)phenyl]cyclopropyl}carbonyl)amino]benzoic acid] is 8-fold lower in IC50: 570 nM for the first, 71 nM for the second. The second is the more potent here.

Going from `CC(C)n1cc(-c2c(F)cc(NC(=O)C3(c4ccc(OC(F)(F)F)cc4)CC3)cc2C(=O)O)cn1` [Example 86, 3-Fluoro-2-[1-(propan-2-yl)-1H-pyrazol-4-yl]-5-[({1-[4-(trifluoromethoxy)phenyl]cyclopropyl}carbonyl)amino]benzoic acid] to `Cc1ccc(C2(C(=O)Nc3cc(F)c(-c4cnn(C(C)C)c4)c(C(=O)O)c3)CC2)c(F)c1` [Example 87, 3-Fluoro-5-({[1-(2-fluoro-4-methylphenyl)cyclopropyl]carbonyl}amino)-2-[1-(propan-2-yl)-1H-pyrazol-4-yl]benzoic acid], the IC50 falls from 69 nM to 38 nM (1.8-fold).
